pEC50: −log10 of the molar value. Like-named read-outs stand apart in the source and are kept apart here.
Tests used:
[1] = system: αT3-1 cells, total IP; experiment: Total inositol phosphate measurement in αT3-1 cells; assay type: cell-based, rat (αT3-1 cells, as printed); settings: myo-[3H] inositol labelled αT3-1 cells, 10 mM LiCl; treatment 45 min; GnRH 1 μM
Protocol: Figure 7 Functional role of the PLC/IP3/PKC and CaM/CaMK-II cascades in PACAP- and Forskolin-induced PRL promoter activity. αT3-1 cells were transiently transfected with pPRL(−1156).LUC for 6 h by using lipofectamine. After 18 h recovery, the cells were incubated with respective drugs. […] (B) Transfected αT3-1 cells were labeled with 2 μCi/well of myo-[3 H] inositol (DuPont/NEN) in myo-inositol free DMEM medium containing 10% fetal bovine serum and then treated with oPACAP38, VIP, and GnRH for 45 mins. The total IP production were analyzed by detecting the radio-labelled inositol incorporation.
Transfected αT3-1 cells were labeled with 2 μCi/well of myo-[^3H] inositol (DuPont/NEN) in myo-inositol free DMEM medium containing 10% fetal bovine serum. After incubation for 12 hr at 37 °C, myo-[^3H] inositol labeling medium was removed, and αT3-1 cells were washed two times with prewarmed phosphate buffered saline (PBS; pH 7.4) to remove trace of the excessive myo-[^3H] inositol. The transfected cells were then incubated in DMEM containing 0.1% BSA and 10 mM LiCl (to inhibit inositol phosphate degradation) for 20 min at 37 °C before drug treatment. After that, the transfected cells were treated with ovine PACAP38, VIP, and GnRH for 45 min. […] Levels of radioactivity in these samples were measured using a liquid scintillation counter (Beckman).

[2] = system: CREB; settings: mammalian cell models; via cAMP/PKA, cAMP/ERK and/or PLC/PKC; cited from earlier work
Source text: CREB is a member of the leucine zipper transcription factors and well-known to be involved in the activation of cAMP-inducible genes. […] Expression of a dominant-negative form of CREB (MCREB) inhibited basal and Forskolin-induced PRL promoter activity and PRL mRNA expression in rat lactotrophs ...

[3] = system: grass carp PRL promoter (pPRL(−1156).Luc) in αT3-1 cells; assay type: cell-based, grass carp (promoter); rat (αT3-1 cells, as printed); settings: 0.1–1000 nM, 24 hr, n = 4
Protocol: The cells were then cultured for 18 hr recovery before drug treatment. (A) Time course analysis on the effect of oPACAP38 (6–48 hrs) on grass carp PRL promoter activity in αT3-1 cells. (B) αT3-1 cells over-expressed pPRL(−1156).LUC were treated for 24 hrs with increasing doses of oPACAP38. Effects of PACAP and VIP antagonists on PACAP-induced PRL mRNA expression were also investigated. In these experiments, αT3-1 cells over-expressed pPRL(−1156).LUC were challenged with oPACAP38 (10 nM, 24 hr) in the presence or absence of (C) the PACAP antagonist PACAP6-38 (10 nM) or (D) VIP antagonist (4-Cl-D-Phe6, Leu17)VIP (“VIP-R antagonist”, 100 nM).
After 18 h recovery, the cells were incubated with respective drugs. (A) αT3-1 cells over-expressed pPRL(−1156).LUC were treated for 24 hrs with increasing doses of cpt-cAMP (1–100 μM). (B) αT3-1 cells over-expressed pPRL(−1156).LUC were treated for 24 hrs with increasing doses of Forskolin (10–1000 nM). Effects of cAMP/PKA inhibitors on PACAP-induced PRL mRNA expression were then investigated. αT3-1 cells over-expressed pPRL(−1156).LUC were challenged with oPACAP38 (10 nM, 24 hr) in the presence or absence of (C) AC inhibitor MDL12330A (10 μM) or (D) PKA blocker H89 (10 μM).
After 18 h recovery, the cells were incubated with respective drugs. The cells were treated for 24 hr with increasing doses of (A) Ca^2+ ionophore A23187 or (B) L-type VSCC activator Bay K8644. Inhibiting extracellular Ca^2+ entry on PRL mRNA expression in carp pituitary cells was examined. In this study, αT3-1 cells over-expressed pPRL(−1156).LUC were treated with (C) oPACAP38 (10 nM, 24 hrs) or (D) Forskolin (100 nM, 24 hrs) in the Ca^2+-free medium (with different doses of EGTA).
After 18 h recovery, the cells were incubated with respective drugs.

[4] = system: PRL secretion / PRL gene expression; settings: mammals, cited from earlier work
Source text: (§1) PACAP and vasoactive intestinal peptide (VIP) are members of the glucagon/secretin peptide family and have been reported to play roles in PRL regulation. […] In contrast to VIP, the biological actions of PACAP on ...

[5] = system: PRL promoter in GH3 cells; settings: cAMP-dependent; cited from earlier work
Source text: as §1

[6] = system: PRL gene expression in GH4C1 cells; settings: cited from earlier work
Source text: as §1

[7] = system: PAC1 receptors; settings: cited from earlier work
Source text: as §1

[8] = system: tCREB in grass carp pituitary cells; experiment: Western blot of tCREB in primary grass carp pituitary cells; settings: oPACAP38, 24 hrs
[9] = system: PRL secretion / PRL mRNA in grass carp pituitary cells; settings: cited from earlier work
Source text: In carp model, PACAP nerve fibers can be identified in anterior pituitary overlapping with the distribution of lactotrophs. Furthermore, PAC1 receptors could be detected in grass carp lactotrophs.

[10] = system: PI3K-dependent cascades in neutrophils; settings: human neutrophils; cited from earlier work
Source text: Given that PACAP has been reported to activate MAPK (e.g., in human SH-SY5Y neuroblastoma cells)[24], and PI3K-dependent cascades (e.g., in human neutrophils)[25], the functional role of MAPK and PI3K in PACAP-induced grass carp promoter activity were also examined. […] However, parallel treatment with the PI3K inhibi ...

Substance: pituitary adenylate cyclase-activating peptide [PACAP]
- total IP level [1]: enhance total IP level
- CREB phosphorylation [2]: trigger CREB phosphorylation
- concentration of maximal response, luciferase activity [3]: 1000 nM
- dose dependence of luciferase activity expression [3]: up-regulate luciferase activity expression in a dose-dependent manner
- pEC50 ([3]; read-out: EC50 value, luciferase activity (PRL promoter activity)): 8.35
- effect on PRL secretion ([4]; ref 9, 13): stimulatory
- effect on PRL secretion ([4]; ref 14): inhibitory
- effect on PRL secretion ([4]; ref 15, 16): no effect
- effect on PRL promoter activity [5]: up-regulate PRL promoter activity
- effect on PRL gene expression [6]: stimulatory effects
- affinity/specificity at PAC1 receptors [7]: specific for PACAP
- total CREB production [8]: stimulated total CREB production
- PRL mRNA expression [9]: up-regulated
- PRL secretion [9]: up-regulated
- activation of PI3K-dependent cascades [10]: activate
